In patent US5919823A, “Treatment of secondary movement disorders using large neutral amino acids” (The Research Foundation For Mental Hygiene, priority 1997, dated 1999):
Read-outs that look alike come from different tables or passages of the source.

How the values were obtained:
[1] = cited from earlier work
[2] = in vivo; cited from earlier work
[3] = Plasma large neutral amino acid and phenylethylamine levels, fasting and 2 hours after protein challenge (Study Two); details: for Plasma level, Post-loading / Plasma LNAA Ratio, Post-loading: 2 hours after protein challenge; for Plasma level, Post-loading / Plasma level, Fasting / Plasma LNAA Ratio, Post-loading / Plasma LNAA Ratio, Fasting: mean ± SD
Description: Blood samples were drawn from patients after an overnight fast and 2 hours after the ingestion of a protein challenge. This challenge was served in the form of a breakfast which consisted of orange juice, a cheese omelette, ham, a waffle and coffee.
The blood samples were assayed for the levels of plasma large neutral amino acids; phenylalanine, tyrosine, tryptophan, alanine, isoleucine, leucine, valine, histidine, and threonine, and for the levels of phenylethylamine. The latter was also measured because it is a major metabolite of phenylalanine and considered to be a neuromodulator.
The plasma amino acids, with the exception of tryptophan, were analyzed by phenylisothiocyanate (PITC) derivation followed by HPLC. The analysis of tryptophan was performed using HPLC with spectrofluormetric detection.
The plasma values of the amino acids were studied both as actual levels and as the ratio of phenylalanine level to the level of the other large neutral amino acids in the plasma. This ratio serves as an index of the entry of phenylalanine into the brain, which accounts for the competition of the other large neutral amino acids (LNAA) with phenylalanine (Phe) at the blood brain barrier, as discussed. previously. This ratio is calculated as follows: [formula]

[4] = Phenylalanine challenge, tardive dystonia symptoms (Study Three, Example 4); type: in vivo, patients (psychotic males and females); details: 100 mg/kg
Description: (§1) A third study (Study Three) was a large scale replication of Study Two with some improved technical methodology; most importantly, the switch from a protein challenge to a phenylalanine challenge and the weight standardization of the phenylalanine challenge (100 mg/kg). This investigation was conducted in 209 psychotic males and 103 psychotic females. […] This finding was independent of the age of the patient.
(§2) As shown below, the data from this study has also enabled the present inventor to study the effect of the phenylalanine challenge on the symptom levels of Parkinsonism, akathisia and tardive dystonia. This information is important in justifying the usefulness of large neutral amino acid treatments for these disorders.
Thus, more than a majority of patients (57.9%) did respond to the phenylalanine challenge. […] Patients without coexisting TD were much more likely to improve their tardive dystonia symptom status after a phenylalanine challenge than patients with coexisting TD, while patients with coexisting TD were much more likely to show a higher level of symptom worsening than those without coexisting TD.

[5] = Phenylalanine challenge, Parkinsonism symptoms (Study Three, Example 4); type: in vivo, patients (psychotic males and females); details: 100 mg/kg
Description: as §1, §2
185 (59.3%) of the study patients made criterion for a case of Parkinsonism; […]. […] The large percentage (88.6%) of patients whose symptoms were impacted by the phenylalanine challenge supports the value of plasma large neutral amino acid manipulation in the treatment of this disorder. Further, as is seen in Table 3 below, this pattern of change was quite similar whether or not the patient had coexisting tardive dyskinesia. Though there is a case by case aspect to treatment success which makes prediction difficult, one can set forth some predictive generalizations as below. A further caveat is that because of the possible case of the worsening of a coexisting disorder the clinician must first treat the disorder that is causing the patient the most difficulty. Difficulty would be defined by some interaction between severity of symptom and disorder.

[6] = of the large neutral amino acids; cited from earlier work
[7] = after challenge administration, most of the subjects; cited from earlier work
[8] = Plasma phenylalanine response to phenylalanine challenge in TD-yes and TD-no patients (Study Three); type: in vivo, psychotic males and females; details: 100 mg/kg, TD Yes vs TD No patients
Description: In this work (Study Two and Three) the plasma level tells us the actual level of phenylalanine in the blood and the phenylalanine/large neutral amino acid ratio gives us a marker relative to the other large neutral amino acids. This ratio thus provides information on brain levels of phenylalanine, or more specifically, the penetrance past the blood brain barrier of phenylalanine. This is so because it is known that phenylalanine competes with the other large neutral amino acids, such as tyrosine, tryptophan, isoleucine, leucine and valine for entry into the brain across the blood brain barrier.

[9] = Multi-challenge study, videotaped TD movement counts (Study Four, Example 2); type: in vivo, male patients
Description: A single patient was exposed over a period of several weeks to multiple dietary challenges, at the rate of one baseline day and one challenge day per week.
The baseline days were Tuesdays and the challenge days were Wednesdays.
On both Tuesdays and Wednesdays a videotaped evaluation procedure for TD was conducted and videotaped TD movement count sessions were held. These were 2 hours post-coffee on Tuesday and 2 hours post challenge on Wednesday. Movement counts were blindly rated from the videotapes by the present inventor.
Evaluation sessions were conducted at the same time on both days with patients fasting (except for one cup of decaffeinated coffee) on the baseline days.
A carbohydrate challenge breakfast; 223 grams of carbohydrates, 1369 calories, less than 4% protein.
A 100 mg/kg challenge of Phe.
A BCAA dietary supplement as follows:
a) 2 patients had 209 mg/kg doses of BCAA powder given in orange juice
The BCAA powder given in orange juice and in the flavored formulation at 150 mg/kg and 275 mg/kg consisted of 30 parts--valine, 30 parts-isoleucineand 40 parts-leucine.

[10] = Phenylalanine challenge, akathisia symptoms (Study Three, Example 4); type: in vivo, patients (psychotic males and females); details: 100 mg/kg
Description: as §1, §2
The large percentage (81.0%) of patients whose symptoms were impacted by the phenylalanine challenge supports the value of plasma large neutral amino acid manipulation in the treatment of this disorder. […] Patients without coexisting TD were more likely to show a higher level of symptom worsening than those with coexisting TD. As said for Parkinsonism, above, though it is the case that there is a case by case aspect to treatment success which makes prediction difficult, one can set forth some predictive generalizations as below: […]

serotonin receptors = details: animals; cited from earlier work
[11] = in vivo; cited from earlier work; remark: listed apart in the source
[12] = 2 hours, ALL (n=185), listed as Phenylalanine
[13] = TD Symptom Persistence group (n = 15)
[14] = TD Symptom Remission group (n = 15)

SMILES: N[C@@H](Cc1c[nH]c2ccc(O)cc12)C(=O)O [5-hydroxytryptophan]
- effect on TD ([1]; seven patients, concomitant administration with carbidopa): no change in TD

SMILES: NC(Cc1c[nH]c2ccccc12)C(=O)O [D-L tryptophan]
- effect on TD ([1]; 4 patients): no change in TD

SMILES: CN1CCN(C2=Nc3cc(Cl)ccc3Nc3ccccc32)CC1 [clozapine]
- movement disorder side-effects [2]: less likely to result in movement disorder side-effects
- other side effects [2]: carries the risk of other serious life-threatening side effects

SMILES: N[C@@H](Cc1ccccc1)C(=O)O [phenylalanine]
- percentage change in plasma level ([3]; in vivo): larger percentage changes
- post challenge phenylalanine to LNAA ratio ([3]; in vivo): significantly higher
- patients whose tardive dystonia responded to the phenylalanine challenge ([4]; 2 hours): 57.9%
- Tardive dystonia BETTER, % ([4]; 2 hours, ALL (n=19)): 21.0%
- Tardive dystonia BETTER, No. ([4]; 2 hours, ALL (n=19)): 4 patients
- Tardive dystonia NO CHANGE, % ([4]; 2 hours, ALL (n=19)): 42.1%
- Tardive dystonia NO CHANGE, No. ([4]; 2 hours, ALL (n=19)): 8 patients
- Tardive dystonia WORSE, % ([4]; 2 hours, ALL (n=19)): 36.9%
- Tardive dystonia WORSE, No. ([4]; 2 hours, ALL (n=19)): 7 patients
- Tardive dystonia BETTER, % ([4]; TD-NO (n=5)): 60.0%
- Tardive dystonia BETTER, No. ([4]; TD-NO (n=5)): 3
- Tardive dystonia NO CHANGE, % ([4]; TD-NO (n=5)): 40.0%
- Tardive dystonia NO CHANGE, No. ([4]; TD-NO (n=5)): 2
- Tardive dystonia WORSE, % ([4]; TD-NO (n=5)): 0.0%
- Tardive dystonia WORSE, No. ([4]; TD-NO (n=5)): none
- Tardive dystonia WORSE, No. ([4]; TD-NO (n=5), listed as Phenylalanine): 0
- Tardive dystonia BETTER, % ([4]; TD-YES (n=14)): 7.1%
- Tardive dystonia BETTER, No. ([4]; TD-YES (n=14)): 1
- Tardive dystonia NO CHANGE, % ([4]; TD-YES (n=14)): 42.9%
- Tardive dystonia NO CHANGE, No. ([4]; TD-YES (n=14)): 6
- Tardive dystonia WORSE, % ([4]; TD-YES (n=14)): 50.0%
- Tardive dystonia WORSE, No. ([4]; TD-YES (n=14)): 7
- patients whose Parkinsonism symptoms were impacted ([5]; 2 hours): 88.6%
- Parkinsonism BETTER, % ([5]; 2 hours, ALL (n=185)): 42.7%
- Parkinsonism BETTER, No. ([5]; 2 hours, ALL (n=185)): 79 patients
- Parkinsonism NO CHANGE, % ([5]; 2 hours, ALL (n=185)): 11.3%
- Parkinsonism NO CHANGE, No. ([5]; 2 hours, ALL (n=185)): 21 patients
- Parkinsonism WORSE, % ([5]; 2 hours, ALL (n=185)): 45.9%
- Parkinsonism WORSE, No. ([5]; 2 hours, ALL (n=185)): 85 patients
- Parkinsonism WORSE, % ([5]; 2 hours, ALL (n=185), listed as Phe): 46%
- Parkinsonism NO CHANGE, % [5, 12]: 11.4%
- Parkinsonism WORSE, % [5, 12]: 45.9%
- Parkinsonism BETTER, % ([5]; TD-NO (n=84)): 40.5%
- Parkinsonism BETTER, No. ([5]; TD-NO (n=84)): 34
- Parkinsonism NO CHANGE, % ([5]; TD-NO (n=84)): 13.1%
- Parkinsonism NO CHANGE, No. ([5]; TD-NO (n=84)): 11
- Parkinsonism WORSE, % ([5]; TD-NO (n=84)): 46.4%
- Parkinsonism WORSE, No. ([5]; TD-NO (n=84)): 39
- Parkinsonism BETTER, % ([5]; TD-YES (n=101)): 44.5%
- Parkinsonism BETTER, No. ([5]; TD-YES (n=101)): 45
- Parkinsonism NO CHANGE, % ([5]; TD-YES (n=101)): 9.9%
- Parkinsonism NO CHANGE, No. ([5]; TD-YES (n=101)): 10
- Parkinsonism WORSE, % ([5]; TD-YES (n=101)): 45.6%
- Parkinsonism WORSE, No. ([5]; TD-YES (n=101)): 46
- affinity for the blood brain barrier [6]: highest affinity for the blood brain barrier
- time of peak phenylalanine plasma level [7]: 2 h
- plasma phenylalanine and phenylalanine/LNAA ratio after phenylalanine challenge [8]: statistically significant higher levels
- TD symptom change ([9]; Patient B, coexisting TD and tardive dystonia): did not show a symptom increase
- patients with an increase in TD symptom severity ([9]; after Phe challenge 100 mg/kg): three out of four
- increase in TD symptom severity, range over patients ([9]; after Phe challenge 100 mg/kg, three patients): 69% to 440
- patients with an increase in TD symptom severity ([9]; after Phe challenge 100 mg/kg, listed as Phe): Three
- patients whose akathisia symptoms were impacted ([10]; 2 hours): 81.0%
- Akathisia BETTER, % ([10]; 2 hours, ALL (n=105)): 33.4%
- Akathisia BETTER, No. ([10]; 2 hours, ALL (n=105)): 35 patients
- Akathisia NO CHANGE, % ([10]; 2 hours, ALL (n=105)): 19.0%
- Akathisia NO CHANGE, No. ([10]; 2 hours, ALL (n=105)): 20 patients
- Akathisia WORSE, % ([10]; 2 hours, ALL (n=105)): 47.6%
- Akathisia WORSE, No. ([10]; 2 hours, ALL (n=105)): 50 patients
- Akathisia BETTER, % ([10]; TD-NO (n=42)): 23.8%
- Akathisia BETTER, No. ([10]; TD-NO (n=42)): 10
- Akathisia NO CHANGE, % ([10]; TD-NO (n=42)): 16.7%
- Akathisia NO CHANGE, No. ([10]; TD-NO (n=42)): 7
- Akathisia WORSE, % ([10]; TD-NO (n=42)): 59.5%
- Akathisia WORSE, No. ([10]; TD-NO (n=42)): 25
- Akathisia BETTER, % ([10]; TD-YES (n=63)): 39.7%
- Akathisia BETTER, No. ([10]; TD-YES (n=63)): 25
- Akathisia NO CHANGE, % ([10]; TD-YES (n=63)): 21.6%
- Akathisia NO CHANGE, No. ([10]; TD-YES (n=63)): 13
- Akathisia WORSE, % ([10]; TD-YES (n=63)): 39.7%
- Akathisia WORSE, No. ([10]; TD-YES (n=63)): 25

SMILES: NCCc1ccccc1 [phenylethylamine, reference compound]
- Plasma level, Percent Change (Postloading/Fasting) [3, 13]: +14.7%
- Plasma level, Post-loading [3, 13]: 0.0951 ± 0.0192 ng/mL
- Plasma level, Fasting [3, 13]: 0.0829 ± 0.0198 ng/mL
- Plasma level, Percent Change (Postloading/Fasting) [3, 14]: +5.9%
- Plasma level, Post-loading [3, 14]: 0.0927 ± 0.0218 ng/mL
- Plasma level, Fasting [3, 14]: 0.0875 ± 0.0305 ng/mL
- phenylethylamine level change ([3]; persistence group, but not in remission group): significantly increased
- motor effect (serotonin receptors): produces a motor syndrome which can be blocked by serotonin antagonists

SMILES: CC(C)NCC(O)COc1cccc2ccccc12 (centres unmarked) [propranolol]
- treatment of neuroleptic-induced akathisia [11]: successful in some patients

SMILES: N[C@@H](Cc1c[nH]c2ccccc12)C(=O)O [tryptophan]
- decrease in tryptophan/LNAA ratio, greater in remittance group ([3]; in vivo): 35%
- magnitude of decrease in tryptophan/LNAA ratio ([3]; in vivo): significantly greater
- effect on TD ([1]; two case reports): reduction of TD symptoms

SMILES: N[C@@H](Cc1ccc(O)cc1)C(=O)O [tyrosine]
- Plasma LNAA Ratio, Percent Change (Postloading/Fasting) [3, 13]: 0%
- Plasma level, Percent Change (Postloading/Fasting) [3, 13]: +23.1%
- Plasma LNAA Ratio, Post-loading [3, 13]: 0.103 ± 0.012
- Plasma level, Post-loading [3, 13]: 85.3 ± 22.6 µM
- Plasma LNAA Ratio, Fasting [3, 13]: 0.103 ± 0.012
- Plasma level, Fasting [3, 13]: 69.3 ± 14.8 µM
- Plasma LNAA Ratio, Percent Change (Postloading/Fasting) [3, 14]: 0%
- Plasma level, Percent Change (Postloading/Fasting) [3, 14]: +30.1%
- Plasma LNAA Ratio, Post-loading [3, 14]: 0.090 ± 0.020
- Plasma level, Post-loading [3, 14]: 84.3 ± 23.5 µM
- Plasma LNAA Ratio, Fasting [3, 14]: 0.090 ± 0.022
- Plasma level, Fasting [3, 14]: 64.8 ± 17.1 µM
- percentage change in plasma level ([3]; symptom remission group vs persistence group, 30 males): larger percentage changes

SMILES: CC(C)[C@H](N)C(=O)O [valine]
- percentage change in plasma level ([3]; in vivo): larger percentage changes
- valine/LNAA ratio change ([3]; in vivo): increased significantly
